Consider two substances from paper PMC6154738, “Anti-Onchocerca and Anti-Caenorhabditis Activity of a Hydro-Alcoholic Extract from the Fruits of Acacia nilotica and Some Proanthocyanidin Derivatives” (Molecules : A Journal of Synthetic Chemistry and Natural …, 2017).

The test system of data set [1] is Caco-2 cells. On the set-up: method as in PMID 22776719. The settings on record: at 127 µg/mL; cited from earlier work.
For the next data set, the system named is O. ochengi males. As to the kind of experiment: microbe, parasite or virus in culture. More on the design: species or system Onchocerca ochengi. To be noted: O. ochengi males, 48 h. From the text: The adult male worms were isolated as previously describe by Ndjonka et al. from fresh pieces of cattle skin (cow-udder) with palpable nodules obtained from the communal slaughter house of Ngaoundere in the Adamawa region of Cameroon. Nodules removed from the skin were brought to the laboratory, washed, drained and sterilized with 70% ethanol for dissection. After dissection of nodules, O. ochengi were extracted, isolated and washed three times in sterile phosphate-buffered saline (PBS). To analyze the anthelmintic activity of extract, fractions and pure compounds, the worms were incubated at 37 °C.
(§1) Adult worms (six individuals per well for males and one per well for the female) and Mf were washed twice and were subsequently transferred to RPMI-1640 medium supplemented with L-glutamine, 100 U/mL penicillin and 100 µg/mL streptomycin and incubated at 37 °C in 24-well plates (96-well plate for Mf) with different concentrations of the drugs tested. Worm mortality was checked by observation under the binocular microscope after 48 h. After shaking, immotile and fully-elongated worms were considered to be dead. All tests were done in three independent triplicate determinations.

For the next data set, the system named is O. ochengi females. As to the kind of experiment: microbe, parasite or virus in culture. To be noted: O. ochengi females, 48 h. On the set-up: species or system Onchocerca ochengi. The protocol:
The adult female worms were isolated by digestion of the nodules with collagenase at 37 °C. The female worms were cultured in a CO2-incubator [67]. For anthelmintic activity, they were incubated with the crude extracts, fractions and pure compounds.
as §1

Another data set has as its system O. ochengi microfilariae. Nature of the data set: microbe, parasite or virus in culture. On the set-up: species or system Onchocerca ochengi. To be noted: O. ochengi microfilariae, 48 h. How it is done:
Microfilariae were isolated as describe by Cho-Ngwa et al. and Ndjonka et al.. About 10 skin snips were obtained from different locations of the skin. The skin snips were then incubated at 37 °C in PBS to let Mf emerge. The highly motile Mf were concentrated by centrifugation at 400× g for 10 min and quantified. The Mf were incubated at 37 °C with the crude extract, fractions and pure compounds.
as §1

In data set [2] the test system is C. elegans DA1316 (avr-14(ad1302) I avr-15(ad1051) glc-1(pk54)). As to the kind of experiment: microbe, parasite or virus in culture. The settings on record: C. elegans DA1316 (ivermectin-resistant). How it is done:
(§2) All strains were obtained from the Caenorhabditis Genetic Centre (CGC, Minneapolis, MN, USA). Strains were maintained at 20 °C on nematode growth medium (NGM). All worms were age-synchronized and obtained from eggs that were isolated by bleaching.
(§3) Young adult (L4 stage) worms were used to assess drug lethality. Monitored endpoint was 48 h mortality. Tests were performed in 24-well plates. Five hundred (500) microliters of test solution, which is M9-buffer (3 g KH2PO4, 6 g Na2HPO4, 5 g NaCl, 0.25 g MgSO4.7H2O, in 1 L of water after been autoclaved supplemented with 2% glucose, 0.5% cholesterol), were distributed in 24-well plates. The volume of M9-buffer equivalent to the drug to be added for each drug final concentration (in each test, three to six concentrations were used) was removed. Untreated worms in M9-buffer were used as negative control. […] Crude extract fraction (stock solution at 100 mg/mL) and pure compound (stock solution at 100 mg/mL) previously dissolved in M9-buffer were then added in well plates at increasing concentration (varying from 0 to 1000 or 1500 µg/mL for extract and fractions; 0 to 100 or 150 µg/mL). The young adult (10 to 15 ± 2) from the axenic culture (without food source) were then added at the test solution. […] Treatments were replicated three times.

In a further data set the test system is C. elegans N2 Bristol WT. Nature of the data set: microbe, parasite or virus in culture. To be noted: C. elegans WT, 48 h. The protocol: as §2, §3
Data set [3] deals with C. elegans VC722 (glc-2(ok1047) I). As to the kind of experiment: microbe, parasite or virus in culture. To be noted: C. elegans VC722 (ivermectin-resistant). How it is done:
as §2, §3

Data set [4] relates to Caco-2 cells. Nature of the data set: In vitro cytotoxicity (MTT) and CC50 determination. The class given is cell-based. How it is done: Cell culture: […] cells at Passage 70 were kindly provided by Prof. Hensel, Institute of Pharmaceutical Biology and Phytochemistry, University of Münster, and were cultured as previously describe by Zumdick et al..
Cytotoxicity test: The cytotoxicity assays were performed according to the method of Rahman et al.. Briefly, 1.5 × 10^4 viable cells/well were seeded in a 96-well plate and incubated for 24 to 48 h. […] DMEM samples were used as the negative control. […] The medium was removed, and formazan, generated by the activity of dehydrogenases, was solubilized with 70 µL of acidified isopropanol (0.4 M HCl). The amount of MTT-formazan that is directly proportional to the number of living cells was determined by measuring the optical density (OD) at 540 nm using a spectrophotometer. All controls used were treated equally. As control and to determine 100% growth, Caco-2 cells were grown in the absence of drugs so as to calculate cell viability. All determinations were performed in triplicate. […] The selectivity index (SI) values were calculated as the ratio: SI = CC50 of drug on Caco2/LC50 of drug on worm.

The next data set deals with O. ochengi. To be noted: read-out: LC50 on O. ochengi; stated in the introduction, no reference given; cited from earlier work.
Where [5] appears, read: calculated in µM, read-out: LC50/48 h (in brackets) (converted).

As to procyanidin, in the data set with Caco-2 cells [1], the “Reduction of cell viability” value is recorded as 15%.
As for Ivermectin [reference compound], the LC50 in the data set on O. ochengi males (setting [5]) was 1.3 µM; in the data set on O. ochengi females (setting [5]), 1.7 µM; with O. ochengi microfilariae (setting [5]) it was 1.7 µM; in the data set on C. elegans N2 Bristol WT (read-out: LC50/48 h (in brackets), calculated in µM), 1.3 µM; with O. ochengi it was 1.7 µM. For the same substance, the LC50/48 h in the data set with O. ochengi males (mean ± SD) was 1.2 ± 0.5 µg/mL; with O. ochengi females (mean ± SD) it was 1.5 ± 0.3 µg/mL; in the data set with O. ochengi microfilariae (mean ± SD), 1.5 ± 0.0 µg/mL; in [2], more than 100 µg/mL; in the data set with C. elegans N2 Bristol WT (mean ± SD), 1.2 ± 0.1 µg/mL; in data set [3], more than 100 µg/mL. The CC50 (usually the concentration at which the toxic effect on the cells reaches its halfway point) in the data set with Caco-2 cells [4] (Caco-2, CC50 after 48 h calculated in µM, read-out: Cytotoxicity CC50, Caco-2 (in brackets) (converted)) is 140 µM. In the data set on Caco-2 cells [4] (Caco-2, MTT), the “Cytotoxicity, means CC50 ± SD, Caco-2” value was found to be 28.7 ± 0.7 µg/mL.
